Assays:
[1] = target: Casein kinase I isoform epsilon (Homo sapiens, UniProt P49674)
[2] = target: Cyclin-dependent kinase 5/CDK5 activator 1 (Homo sapiens, UniProt Q00535); format: cell-based, Sf9
[3] = target: Dual specificity protein kinase CLK2 (Homo sapiens, UniProt P49760)
[4] = target: Dual specificity protein kinase CLK3 (Homo sapiens, UniProt P49761); format: cell-based, Sf9
[5] = target: Dual specificity protein kinase CLK4 (Homo sapiens, UniProt Q9HAZ1)
[6] = target: T1, Dual specificity tyrosine-phosphorylation-regulated kinase 2 (Homo sapiens, UniProt Q92630)
T1 sequence (Q92630 whole entry): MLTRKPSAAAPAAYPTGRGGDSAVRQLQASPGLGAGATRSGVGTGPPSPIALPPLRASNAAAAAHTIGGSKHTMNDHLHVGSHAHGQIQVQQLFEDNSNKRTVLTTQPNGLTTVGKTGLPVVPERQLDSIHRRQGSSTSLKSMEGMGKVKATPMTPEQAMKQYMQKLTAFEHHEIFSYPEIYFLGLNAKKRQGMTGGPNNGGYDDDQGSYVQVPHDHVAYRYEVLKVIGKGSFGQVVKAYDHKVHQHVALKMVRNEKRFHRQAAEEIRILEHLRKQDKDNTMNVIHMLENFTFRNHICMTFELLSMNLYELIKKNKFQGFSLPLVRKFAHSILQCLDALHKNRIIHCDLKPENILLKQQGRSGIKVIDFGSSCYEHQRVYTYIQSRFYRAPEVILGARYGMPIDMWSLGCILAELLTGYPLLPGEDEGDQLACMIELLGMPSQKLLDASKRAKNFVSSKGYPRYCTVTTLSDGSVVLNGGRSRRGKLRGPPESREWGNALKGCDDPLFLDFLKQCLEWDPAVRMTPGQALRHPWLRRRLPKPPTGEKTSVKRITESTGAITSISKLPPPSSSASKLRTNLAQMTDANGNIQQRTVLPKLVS

[7] = target: T2, Dual specificity tyrosine-phosphorylation-regulated kinase 3 (Homo sapiens, UniProt O43781)
T2 sequence (O43781 whole entry): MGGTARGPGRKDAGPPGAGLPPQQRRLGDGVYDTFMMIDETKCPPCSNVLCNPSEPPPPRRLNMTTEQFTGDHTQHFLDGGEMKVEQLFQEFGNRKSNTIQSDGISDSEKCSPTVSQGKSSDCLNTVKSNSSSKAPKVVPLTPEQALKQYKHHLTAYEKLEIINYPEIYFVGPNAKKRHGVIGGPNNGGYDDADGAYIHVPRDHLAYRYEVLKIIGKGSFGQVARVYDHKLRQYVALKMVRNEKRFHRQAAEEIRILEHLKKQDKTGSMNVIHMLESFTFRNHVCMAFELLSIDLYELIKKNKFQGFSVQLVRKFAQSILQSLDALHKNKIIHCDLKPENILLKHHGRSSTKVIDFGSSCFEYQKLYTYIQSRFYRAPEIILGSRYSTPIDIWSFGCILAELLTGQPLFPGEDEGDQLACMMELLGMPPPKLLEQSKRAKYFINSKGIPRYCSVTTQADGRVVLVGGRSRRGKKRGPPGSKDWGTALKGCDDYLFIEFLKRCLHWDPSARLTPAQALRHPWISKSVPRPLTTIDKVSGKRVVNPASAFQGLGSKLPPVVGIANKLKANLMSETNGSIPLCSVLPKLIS

[8] = target: T3, Dual specificity tyrosine-phosphorylation-regulated kinase 4 (Homo sapiens, UniProt Q9NR20)
T3 sequence (Q9NR20 whole entry): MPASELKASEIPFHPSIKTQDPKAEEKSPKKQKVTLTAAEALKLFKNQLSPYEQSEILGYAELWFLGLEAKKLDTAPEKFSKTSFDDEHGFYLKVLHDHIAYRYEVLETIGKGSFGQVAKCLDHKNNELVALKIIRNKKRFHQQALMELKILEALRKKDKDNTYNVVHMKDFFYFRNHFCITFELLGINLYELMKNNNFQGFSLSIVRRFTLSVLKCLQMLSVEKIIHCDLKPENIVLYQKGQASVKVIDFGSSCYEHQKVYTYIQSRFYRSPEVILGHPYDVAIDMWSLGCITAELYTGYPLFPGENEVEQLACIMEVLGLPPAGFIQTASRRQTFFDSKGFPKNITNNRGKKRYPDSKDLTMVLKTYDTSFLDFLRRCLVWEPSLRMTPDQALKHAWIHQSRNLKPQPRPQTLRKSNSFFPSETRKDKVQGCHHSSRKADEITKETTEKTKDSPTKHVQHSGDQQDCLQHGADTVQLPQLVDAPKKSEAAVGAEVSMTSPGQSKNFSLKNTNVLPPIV

[9] = target: Glycogen synthase kinase-3 beta (Homo sapiens, UniProt P49841); format: cell-based, Sf9
Chain of Glycogen synthase kinase-3 beta (P49841 whole entry): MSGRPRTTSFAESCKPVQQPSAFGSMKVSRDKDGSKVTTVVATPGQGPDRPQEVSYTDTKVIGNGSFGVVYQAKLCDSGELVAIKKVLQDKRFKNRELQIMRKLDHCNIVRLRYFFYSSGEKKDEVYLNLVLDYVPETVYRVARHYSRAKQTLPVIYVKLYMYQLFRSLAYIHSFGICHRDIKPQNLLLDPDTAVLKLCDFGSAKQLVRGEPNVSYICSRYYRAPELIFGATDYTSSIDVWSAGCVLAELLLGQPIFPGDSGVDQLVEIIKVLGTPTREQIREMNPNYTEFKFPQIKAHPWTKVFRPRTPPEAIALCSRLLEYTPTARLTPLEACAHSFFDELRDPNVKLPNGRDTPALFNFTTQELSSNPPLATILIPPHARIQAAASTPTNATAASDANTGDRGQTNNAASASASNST

Chain of Casein kinase I isoform epsilon (P49674 whole entry, canonical isoform): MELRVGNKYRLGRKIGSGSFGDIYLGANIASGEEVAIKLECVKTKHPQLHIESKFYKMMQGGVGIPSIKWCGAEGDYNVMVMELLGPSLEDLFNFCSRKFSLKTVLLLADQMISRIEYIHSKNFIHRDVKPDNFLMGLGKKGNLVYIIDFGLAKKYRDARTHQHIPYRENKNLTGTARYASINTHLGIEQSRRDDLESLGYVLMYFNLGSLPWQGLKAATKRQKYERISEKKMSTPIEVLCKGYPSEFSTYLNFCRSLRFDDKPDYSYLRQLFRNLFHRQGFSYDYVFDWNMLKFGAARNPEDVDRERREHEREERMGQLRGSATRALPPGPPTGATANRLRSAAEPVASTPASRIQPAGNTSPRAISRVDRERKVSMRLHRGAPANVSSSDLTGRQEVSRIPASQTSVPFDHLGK
Chain of Dual specificity protein kinase CLK3 (P49761 whole entry): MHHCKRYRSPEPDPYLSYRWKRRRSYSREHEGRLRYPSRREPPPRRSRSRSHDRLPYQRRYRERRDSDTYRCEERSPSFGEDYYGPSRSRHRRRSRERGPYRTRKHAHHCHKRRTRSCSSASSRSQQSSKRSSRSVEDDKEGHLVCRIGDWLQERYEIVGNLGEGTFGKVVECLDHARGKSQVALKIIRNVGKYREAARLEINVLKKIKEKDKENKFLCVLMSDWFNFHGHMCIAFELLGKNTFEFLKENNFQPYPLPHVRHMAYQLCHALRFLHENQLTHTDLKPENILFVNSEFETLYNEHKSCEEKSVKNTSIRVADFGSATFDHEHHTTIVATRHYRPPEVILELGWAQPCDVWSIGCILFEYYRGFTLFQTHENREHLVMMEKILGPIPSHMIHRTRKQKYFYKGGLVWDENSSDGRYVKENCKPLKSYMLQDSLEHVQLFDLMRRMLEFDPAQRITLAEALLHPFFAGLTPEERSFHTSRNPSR
Chain of Cyclin-dependent kinase 5/CDK5 activator 1 (Q00535 whole entry): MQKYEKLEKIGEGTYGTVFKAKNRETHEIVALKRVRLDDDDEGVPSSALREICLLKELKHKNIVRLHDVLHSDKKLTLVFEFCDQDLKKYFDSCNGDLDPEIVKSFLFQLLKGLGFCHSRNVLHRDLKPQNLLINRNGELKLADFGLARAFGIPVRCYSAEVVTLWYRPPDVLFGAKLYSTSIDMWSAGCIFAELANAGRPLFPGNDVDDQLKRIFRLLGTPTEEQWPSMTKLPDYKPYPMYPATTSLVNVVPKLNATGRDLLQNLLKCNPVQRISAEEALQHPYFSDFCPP
Chain of Cyclin-dependent kinase 5/CDK5 activator 1 (Q15078 whole entry, further chain): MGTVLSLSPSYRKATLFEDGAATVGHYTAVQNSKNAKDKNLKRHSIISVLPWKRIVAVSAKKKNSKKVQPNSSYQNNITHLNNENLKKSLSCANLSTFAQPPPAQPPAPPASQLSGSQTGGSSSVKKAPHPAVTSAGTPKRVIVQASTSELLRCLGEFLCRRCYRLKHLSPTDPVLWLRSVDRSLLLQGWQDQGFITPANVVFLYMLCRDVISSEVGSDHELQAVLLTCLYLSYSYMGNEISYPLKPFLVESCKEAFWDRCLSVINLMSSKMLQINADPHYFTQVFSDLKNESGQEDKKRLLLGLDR
Chain of Dual specificity protein kinase CLK4 (Q9HAZ1 whole entry): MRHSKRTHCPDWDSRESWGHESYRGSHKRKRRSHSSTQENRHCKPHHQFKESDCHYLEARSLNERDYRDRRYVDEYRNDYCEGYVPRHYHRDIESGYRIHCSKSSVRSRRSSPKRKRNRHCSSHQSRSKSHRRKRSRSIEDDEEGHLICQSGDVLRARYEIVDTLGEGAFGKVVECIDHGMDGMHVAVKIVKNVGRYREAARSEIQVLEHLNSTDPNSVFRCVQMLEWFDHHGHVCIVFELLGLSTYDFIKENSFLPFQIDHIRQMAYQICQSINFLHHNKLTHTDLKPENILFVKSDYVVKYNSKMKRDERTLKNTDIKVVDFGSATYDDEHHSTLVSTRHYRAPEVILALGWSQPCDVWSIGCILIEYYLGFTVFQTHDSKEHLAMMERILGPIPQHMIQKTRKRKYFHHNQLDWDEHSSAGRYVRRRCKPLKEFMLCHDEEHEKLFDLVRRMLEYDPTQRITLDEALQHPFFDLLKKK
Chain of Dual specificity protein kinase CLK2 (P49760 whole entry): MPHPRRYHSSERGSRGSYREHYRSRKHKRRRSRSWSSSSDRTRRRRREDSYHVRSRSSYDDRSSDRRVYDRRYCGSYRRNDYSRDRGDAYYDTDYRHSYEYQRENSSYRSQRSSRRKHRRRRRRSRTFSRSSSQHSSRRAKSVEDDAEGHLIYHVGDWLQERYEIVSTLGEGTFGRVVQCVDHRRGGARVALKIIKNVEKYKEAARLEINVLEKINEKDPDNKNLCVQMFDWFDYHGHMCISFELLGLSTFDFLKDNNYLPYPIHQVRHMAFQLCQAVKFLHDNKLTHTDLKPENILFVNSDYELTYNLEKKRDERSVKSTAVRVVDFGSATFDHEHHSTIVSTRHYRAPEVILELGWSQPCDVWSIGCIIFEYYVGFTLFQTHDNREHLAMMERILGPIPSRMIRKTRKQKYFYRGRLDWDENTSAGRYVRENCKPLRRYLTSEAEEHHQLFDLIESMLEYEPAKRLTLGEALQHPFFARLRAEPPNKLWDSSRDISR

Row | IC50 [1] | IC50 [2] | IC50 [3] | IC50 [4] | IC50 [5] | IC50 [6] | IC50 [7] | IC50 [8] | IC50 [9] | SMILES
1 | > 10 µM | > 10 µM | 0.614 µM | 0.491 µM | 0.014 µM | 0.574 µM | 1.43 µM | 2.16 µM | 5.92 µM | O=C1NC(NC2COC2)=N/C1=C\c1ccc2ncsc2c1
2 | > 10 µM | > 10 µM | 0.416 µM | 2.81 µM | 0.027 µM | 3.3 µM | 2.98 µM | 6.08 µM | > 10 µM | CN1CCCC(NC2=N/C(=C\c3ccc4ncsc4c3)C(=O)N2)C1=O (racemic)
3 | > 10 µM | > 10 µM | 0.099 µM | 0.808 µM | 0.012 µM | 0.4 µM | 2.38 µM | 0.374 µM | 4.25 µM | COCC(Cc1ccccc1)NC1=N/C(=C\c2ccc3ncsc3c2)C(=O)N1 (stereo unspecified)
4 | – | > 10 µM | 0.127 µM | 0.722 µM | 0.024 µM | 1.89 µM | 1.8 µM | 1.63 µM | 2.81 µM | Cc1ccc(CNC2=N/C(=C\c3ccc4ncsc4c3)C(=O)N2)o1
5 | > 10 µM | > 10 µM | 1.31 µM | > 10 µM | 0.436 µM | > 10 µM | > 10 µM | > 10 µM | > 10 µM | CC(C)(C)C(=O)OC12CC3CC(CC(NC4=N/C(=C\c5ccc6ncsc6c5)C(=O)N4)(C3)C1)C2
6 | > 10 µM | > 10 µM | 14.2 µM | > 10 µM | 3.13 µM | > 10 µM | > 10 µM | > 10 µM | > 10 µM | CCCCCCc1ccc(NC2=N/C(=C\c3ccc4ncsc4c3)C(=O)N2)cc1
7 | > 10 µM | > 10 µM | 5.63 µM | > 10 µM | 0.034 µM | 2.28 µM | 3.26 µM | > 10 µM | > 10 µM | Cc1nc2ccc(/C=C3\N=C(NC4CCCCCC4)NC3=O)cc2s1
8 | > 10 µM | > 10 µM | 1.32 µM | 1.68 µM | 0.035 µM | 2.09 µM | 2.8 µM | 7.29 µM | > 10 µM | O=C1NC(NC2CCCNC2=O)=N/C1=C\c1ccc2ncsc2c1 (racemic)
9 | > 10 µM | > 10 µM | 0.869 µM | 2.24 µM | 0.021 µM | 0.257 µM | 0.443 µM | 0.705 µM | 1.83 µM | CC(=O)N1CCc2ccc(NC3=N/C(=C\c4ccc5ncsc5c4)C(=O)N3)cc21
10 | > 10 µM | 6.11 µM | 0.086 µM | 0.28 µM | 0.013 µM | 1.21 µM | 1.64 µM | 1.94 µM | 2.15 µM | O=C1NC(NCc2ccccc2)=N/C1=C\c1ccc2ncsc2c1
11 | > 10 µM | > 10 µM | 0.771 µM | 1.23 µM | 0.18 µM | 4.76 µM | 0.887 µM | 7.04 µM | > 10 µM | CN1CCCC(NC2=N/C(=C\c3ccc4ncsc4c3)C(=O)N2)C1 (racemic)
12 | > 10 µM | > 10 µM | 1.34 µM | > 10 µM | 0.02 µM | 0.666 µM | 0.324 µM | > 10 µM | > 10 µM | Cc1nc2ccc(/C=C3\N=C(NC45CC6CC(CC(C6)C4)C5)NC3=O)cc2s1
13 | > 10 µM | > 10 µM | 0.017 µM | 0.738 µM | 0.011 µM | 0.176 µM | 0.223 µM | 0.221 µM | > 10 µM | CC1(C)C2CCC1(C)[C@H](NC1=N/C(=C\c3ccc4ncsc4c3)C(=O)N1)C2 (stereo partly specified)
14 | > 10 µM | > 10 µM | 0.698 µM | 1.55 µM | 0.073 µM | 5.63 µM | 4.05 µM | 4.82 µM | 3.68 µM | Cn1ncc2cccc(NC3=N/C(=C\c4ccc5ncsc5c4)C(=O)N3)c21
15 | 5 µM | > 10 µM | 0.035 µM | 0.709 µM | 0.011 µM | 0.147 µM | 0.299 µM | 0.127 µM | 1.8 µM | CC(C)(C)NC(=O)OC12CC3CC(CC(NC4=N/C(=C\c5ccc6ncsc6c5)C(=O)N4)(C3)C1)C2
16 | > 10 µM | > 10 µM | 3.66 µM | > 10 µM | 1.5 µM | > 10 µM | 1.59 µM | > 10 µM | > 10 µM | CN1CCC(CNC2=N/C(=C\c3ccc4ncsc4c3)C(=O)N2)CC1
17 | > 10 µM | > 10 µM | 0.211 µM | 2.74 µM | 0.147 µM | 9.72 µM | 2.45 µM | 2.56 µM | > 10 µM | CC(C)[C@@H]1CC[C@@H](C)C[C@H]1NC1=N/C(=C\c2ccc3ncsc3c2)C(=O)N1
18 | – | > 10 µM | 0.219 µM | 1.7 µM | 0.017 µM | 0.903 µM | 1.54 µM | 0.821 µM | 4.1 µM | COC(=O)[C@H](CC(C)C)NC1=N/C(=C\c2ccc3ncsc3c2)C(=O)N1
19 | > 10 µM | > 10 µM | 0.923 µM | 4.48 µM | 0.028 µM | 0.854 µM | 2.02 µM | 3.47 µM | > 10 µM | CC1(C)CNC(=O)C1NC1=N/C(=C\c2ccc3ncsc3c2)C(=O)N1 (racemic)
20 | > 10 µM | > 10 µM | 1.03 µM | 1.15 µM | 0.033 µM | 1.66 µM | 2.56 µM | 3.12 µM | > 10 µM | O=C1NC(NC2CCNC2=O)=N/C1=C\c1ccc2ncsc2c1 (racemic)
21 | – | > 10 µM | 0.094 µM | 0.698 µM | 0.012 µM | 0.811 µM | 1.13 µM | 1.29 µM | > 10 µM | O=C1NC(NCC2CCOCC2)=N/C1=C\c1ccc2ncsc2c1
22 | > 10 µM | > 10 µM | 0.469 µM | 1.16 µM | 0.022 µM | 0.664 µM | 0.346 µM | 3.26 µM | 8.18 µM | O=C1CC[C@H](NC2=N/C(=C\c3ccc4ncsc4c3)C(=O)N2)CN1
23 | > 10 µM | > 10 µM | 0.031 µM | 1.24 µM | 0.014 µM | > 10 µM | > 10 µM | – | > 10 µM | Cc1ccc(CNC2=N/C(=C\c3ccc4ncsc4c3)C(=O)N2)cc1C
24 | – | > 10 µM | 0.378 µM | 0.852 µM | 0.034 µM | 2.37 µM | 5.07 µM | 2.26 µM | 1.34 µM | COC(=O)[C@@H](CC(C)C)NC1=N/C(=C\c2ccc3ncsc3c2)C(=O)N1

— ChEMBL document CHEMBL5360622, “Leucettinibs, a Class of DYRK/CLK Kinase Inhibitors Inspired by the Marine Sponge Natural Product Leucettamine B” (J Med Chem, 2023)
